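Results reflect a 48-hour exposure of cells in 96-well plates to compound at five concentrations. Abbreviation: GI50, concentration required for 50% inhibition of growth. TGI is the concentration that stops growth completely.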
Assays:
Test in all cases: DTP human tumour cell line panel, 48 h
KM12 colon = tested on: KM12 colon
BT-549 breast = tested on: BT-549 breast
HT29 colon = tested on: HT29 colon
786-0 renal = tested on: 786-0 renal
SNB-75 CNS = tested on: SNB-75 CNS
MALME-3M melanoma = tested on: MALME-3M melanoma
COLO 205 colon = tested on: COLO 205 colon
OVCAR-8 ovarian = tested on: OVCAR-8 ovarian
NCI-H23 lung = tested on: NCI-H23 lung
U251 CNS = tested on: U251 CNS

| Structure (SMILES) | GI50 (KM12 colon) [µM] | TGI (KM12 colon) [µM] | GI50 (BT-549 breast) [µM] | TGI (BT-549 breast) [µM] | GI50 (HT29 colon) [µM] | TGI (HT29 colon) [µM] | GI50 (786-0 renal) [µM] | TGI (786-0 renal) [µM] | GI50 (SNB-75 CNS) [µM] | TGI (SNB-75 CNS) [µM] | GI50 (MALME-3M melanoma) [µM] | TGI (MALME-3M melanoma) [µM] | GI50 (COLO 205 colon) [µM] | TGI (COLO 205 colon) [µM] | GI50 (OVCAR-8 ovarian) [µM] | TGI (OVCAR-8 ovarian) [µM] | GI50 (NCI-H23 lung) [µM] | TGI (NCI-H23 lung) [µM] | GI50 (U251 CNS) [µM] | TGI (U251 CNS) [µM] |
| --- | --- | --- | --- | --- | --- | --- | --- | --- | --- | --- | --- | --- | --- | --- | --- | --- | --- | --- | --- | --- |
| CCN(CC)CCC(CNc1ccnc2cc(Cl)ccc12)c1ccc(Cl)cc1 (stereo not drawn) | 1.79 | 4.44 | 1.73 | 3.4 | 0.282 | 1.49 | 1.34 | 2.68 | 1.3 | 2.64 | 1.4 | 3.16 | 1.13 | 2.5 | 1.86 | 4.79 | 1.87 | 7.1 | 1.37 | 2.85 |
| CSc1nc(=O)n(CCC#N)nc1SC |  | > 100 |  | 55.1 |  | > 100 |  | 44.6 |  | > 100 |  | 48.6 |  | 52.8 |  | > 100 |  | > 100 |  | > 100 |
| COc1cc(Nc2ncccc2C(=O)NCc2cn(Cc3cccc(Oc4ccccc4)c3)nn2)cc(OC)c1 | 3.84 | > 100 | 7.16 | > 100 | 3.88 | > 100 | 6.73 | > 100 | 3.98 | > 100 | 5.81 | > 100 | 4.12 | > 100 | 5.96 | > 100 | 6.22 | > 100 | 4.58 | > 100 |
| N#Cc1c(NC(=O)NCc2ccccc2)sc2c1CCCCC2 | 0.448 | > 100 | 0.923 | > 100 | 0.398 | > 100 | 0.761 | > 100 | 0.261 | 4.91 | 0.524 | > 100 | 0.521 | 3.74 | 1.61 | > 100 | 0.695 | > 59.8 | 0.535 | > 71.2 |
| CCCCC#CC1=C(Br)C(=O)OC1 | 1.8 | 3.89 | 1.8 | 5.91 | 2.85 | > 22.1 | 2 | 5.14 | 15.6 | > 100 | 1.73 | 4.13 | 2.66 | > 22.2 | 1.75 | 10.2 | 1.5 | 9.23 | 1.59 | > 20.1 |
| COc1cccc(C2CC(C)(O)Oc3cc4c(cc32)OCO4)c1O (stereo not drawn) |  | 52.3 |  | 62.4 |  | 50.6 |  | > 100 |  | 60.2 |  | > 100 |  | 41.3 |  | 67.8 |  | 92.9 |  | 70.4 |
| CCOC(=O)C1=CN(C)C=C(C(=O)OCC)C1c1cc(Br)c(OCC)c(OC)c1 | 35 | > 100 | > 100 | > 100 | 34.5 | > 100 | > 100 | > 100 | 20.8 | > 100 | > 100 | > 100 | 68.7 | > 100 | > 100 | > 100 | > 100 | > 100 | > 100 | > 100 |
| CC1(C)N=C(N)N=C(N)N1c1ccc(CCCCc2ccc(Cl)cc2S(=O)(=O)F)c(Cl)c1 | 0.551 | 14.4 | 2.64 | 24.3 | 0.374 | 14.5 | 0.428 | 8.08 | 1.39 | 23 | 1.65 | 14.9 | 0.522 | 2.53 | 0.499 | 16.8 | 0.537 | 18.5 | 0.291 | 15.4 |
| NC(=O)/C=C/C(=O)c1c(Cl)cccc1Cl | 1.59 | 3.02 | 1.59 | 3.03 | 1.55 | > 100 | 2.14 |  | 1.61 | 2.96 | 0.358 | 1.71 | 0.191 | 0.355 | 1.75 | 3.27 | 1.53 | 3.01 | 1.36 | 2.67 |
| N#Cc1c(N)nc(N2CCOCC2)c(C#N)c1-c1ccncc1 | > 100 | > 100 | 95.8 | > 100 | > 100 | > 100 | 95.7 | > 100 | 41.4 | > 100 | 9.04 | 98.1 | > 100 | > 100 | > 100 | > 100 |  |  | > 100 | > 100 |
| COC(=O)COc1ccccc1/C=C1\N=C(c2ccccc2)N(c2cc(C(F)(F)F)ccc2Cl)C1=O | 41.7 | > 100 | 28.4 | 86.2 | 73.2 | > 100 | 91.2 | > 100 | 34.4 | > 100 | 27.5 | 92.5 | 31.7 | > 100 | 37.3 | > 100 | > 100 | > 100 | 55.9 | > 100 |
| Cc1ccc(SC2c3ccc(C)cc3Oc3nc(N)c(C#N)c(N)c32)cc1 (stereo not drawn) | 2.36 | 6.6 | 1.63 | 3.25 | 2 | 3.9 | 1.72 | 3.16 | 1.5 | 4.53 | 1.77 | 3.6 | 1.71 | 3.32 | 1.67 | 3.06 |  |  | 1.69 | 3.08 |
| C#CCOc1cccc(-c2ncc3cc(NC(=O)CCl)ccc3n2)c1 | 1.61 | 3.11 | 1.47 | 3.18 | 2.02 | 3.99 | 2.01 | 3.59 | 2.22 | 15.4 | 1.65 | 3.29 |  |  |  |  | 1.87 | 4.71 | 1.78 | 3.23 |
| COC(=O)C1c2cc3c(cc2C(OC2OC(C)C(OC)C(C)(OC)C2OC)CC1(C)O)C(=O)c1c(O)cc2c(c1C3=O)OC1OC2(C)C(O)C([N+](C)(C)[O-])C1O (stereo not drawn) |  |  |  | 9.14 |  |  |  | > 40.5 |  | 1.86 |  | 1.25 |  | 0.293 |  | 4.22 |  | 0.718 |  |  |
